Values joined by “and” are separate entries in the source; they are usually repeats but may differ in a detail not shown here. Equal values may be shown once. Inconclusive results and toxic doses are left out. The calls were made as follows: active = survival T/C of 150% or more; inactive = T/C below 125% in these data.
Tested on: P388 leukemia ip, CD2F1 mice, survival T/C
Experiment: NCI In Vivo Anticancer Drug Screen. Data for tumor model P388 Leukemia (intraperitoneal) in CD2F1 (CDF1) mice
Conditions: endpoint: median survival time, higher = longer survival
Outline: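 Mice carrying the transplanted tumor received test compound or vehicle. Survival was recorded in each group, and the value is the treated-group measurement divided by that of the vehicle-treated control group.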

[1] = dose: 200.0 mg/kg/injection, schedule: Q01DX009 (ip), vehicle: saline with Tween-80
[2] = dose: 25.0 mg/kg/injection, schedule: Q01DX009 (ip), vehicle: other
[3] = dose: 50.0 mg/kg/injection, schedule: Q01DX009 (ip), vehicle: other
[4] = dose: 100.0 mg/kg/injection, schedule: Q01DX009 (ip), vehicle: other
[5] = dose: 200.0 mg/kg/injection, schedule: Q01DX009 (ip), vehicle: other
[6] = dose: 50.0 mg/kg/injection, schedule: Q01DX005 (ip), vehicle: saline with Tween-80
[7] = dose: 100.0 mg/kg/injection, schedule: Q01DX005 (ip), vehicle: saline with Tween-80
[8] = dose: 50.0 mg/kg/injection, schedule: Q01DX009 (ip), vehicle: saline with Tween-80
[9] = dose: 100.0 mg/kg/injection, schedule: Q01DX009 (ip), vehicle: saline with Tween-80
[10] = dose: 12.5 mg/kg/injection, schedule: Q01DX005 (ip), vehicle: saline with Tween-80
[11] = dose: 25.0 mg/kg/injection, schedule: Q01DX005 (ip), vehicle: saline with Tween-80

Measured: T/C

CO[C@H]1C[C@@H]2CC[C@@H](C)[C@@](O)(O2)C(=O)C(=O)N2CCCC[C@H]2C(=O)O[C@H]([C@H](C)C[C@@H]2CC[C@@H](O)[C@H](OC)C2)CC(=O)[C@H](C)C=C(C)[C@@H](O)[C@@H](OC)C(=O)[C@H](C)C[C@H](C)/C=C/C=C/C=C1C
inactive: dose: 6.25 mg/kg/injection, schedule: Q01DX001 (ip), vehicle: clinical formulation 103 % of control | dose: 6.25 mg/kg/injection, schedule: Q01DX001 (iv), vehicle: clinical formulation 102 % of control | dose: 6.25 mg/kg/injection, schedule: Q01DX005 (iv), vehicle: clinical formulation 115 % of control | dose: 12.5 mg/kg/injection, schedule: Q01DX001 (ip), vehicle: clinical formulation 107 % of control | dose: 12.5 mg/kg/injection, schedule: Q01DX001 (iv), vehicle: clinical formulation 100 % of control | dose: 12.5 mg/kg/injection, schedule: Q01DX005 (iv), vehicle: clinical formulation 110 % of control | dose: 25.0 mg/kg/injection, schedule: Q01DX001 (ip), vehicle: clinical formulation 111 % of control | dose: 25.0 mg/kg/injection, schedule: Q01DX001 (iv), vehicle: clinical formulation 100 % of control | dose: 25.0 mg/kg/injection, schedule: Q01DX005 (iv), vehicle: clinical formulation 113 % of control | dose: 50.0 mg/kg/injection, schedule: Q01DX001 (ip), vehicle: clinical formulation 118 % of control | dose: 50.0 mg/kg/injection, schedule: Q01DX001 (iv), vehicle: clinical formulation 106 % of control | dose: 50.0 mg/kg/injection, schedule: Q01DX005 (iv), vehicle: clinical formulation 113 % of control | dose: 50.0 mg/kg/injection, schedule: Q01DX005 (oral), vehicle: saline with Tween-80 110 % of control | dose: 50.0 mg/kg/injection, schedule: Q01DX009 (oral), vehicle: saline with Tween-80 116 % of control | dose: 100.0 mg/kg/injection, schedule: Q01DX001 (ip), vehicle: clinical formulation 117 % of control | dose: 100.0 mg/kg/injection, schedule: Q01DX001 (ip), vehicle: saline with Tween-80 124 % of control | dose: 100.0 mg/kg/injection, schedule: Q01DX001 (iv), vehicle: clinical formulation 104 % of control | dose: 100.0 mg/kg/injection, schedule: Q01DX005 (ip), vehicle: clinical formulation 110 % of control | dose: 100.0 mg/kg/injection, schedule: Q01DX005 (oral), vehicle: saline with Tween-80 112 % of control | dose: 100.0 mg/kg/injection, schedule: Q01DX009 (oral), vehicle: saline with Tween-80 119 % of control | dose: 200.0 mg/kg/injection, schedule: Q01DX001 (ip), vehicle: clinical formulation 118 % of control | dose: 200.0 mg/kg/injection, schedule: Q01DX005 (oral), vehicle: saline with Tween-80 108 % of control | [1] 122 % of control | dose: 200.0 mg/kg/injection, schedule: Q01DX009 (oral), vehicle: saline with Tween-80 112 % of control | dose: 400.0 mg/kg/injection, schedule: Q01DX005 (oral), vehicle: saline with Tween-80 118 % of control | dose: 400.0 mg/kg/injection, schedule: Q01DX009 (oral), vehicle: saline with Tween-80 116 % of control | dose: 800.0 mg/kg/injection, schedule: Q01DX005 (oral), vehicle: saline with Tween-80 116 % of control | dose: 800.0 mg/kg/injection, schedule: Q01DX009 (oral), vehicle: saline with Tween-80 116 % of control

COC1c2cc3ccccc3nc2-c2ccccc2C1(C)C (configuration not stated)
inactive: [2] 99 % of control | [3] 96 % of control | [4] 93 % of control | [5] 89 % of control | dose: 400.0 mg/kg/injection, schedule: Q01DX009 (ip), vehicle: other 89 % of control

COc1cccc2c(=O)c(COC(C)=O)c(C)[nH]c12
inactive: dose: 60.0 mg/kg/injection, schedule: Q01DX005 (ip), vehicle: saline 112 % of control | dose: 120.0 mg/kg/injection, schedule: Q01DX005 (ip), vehicle: saline 112 % of control | dose: 240.0 mg/kg/injection, schedule: Q01DX005 (ip), vehicle: saline 112 % of control

N#Cc1c(C(=O)NN)cc(-c2ccc3ccccc3c2)[nH]c1=O
inactive: [6] 100 % of control | [7] 98 % of control

O=[n+]1c2c(n([O-])c3ccccc31)CCC2
inactive: [8] 98 % of control | [9] 100 % of control | [1] 108 % of control

NC1=NS(=O)(=O)c2ccccc2N1c1ccccc1
inactive: dose: 100.0 mg/kg/injection, schedule: Q04DX002 (ip), vehicle: saline with Tween-80 97 % of control | dose: 200.0 mg/kg/injection, schedule: Q04DX002 (ip), vehicle: saline with Tween-80 103 % of control | dose: 400.0 mg/kg/injection, schedule: Q04DX002 (ip), vehicle: saline with Tween-80 92 % of control

OCc1cc(-c2ccc(Cl)cc2)nc2c(C(F)(F)F)cccc12
inactive: dose: 100.0 mg/kg/injection, schedule: Q04DX003 (ip), vehicle: saline with Tween-80 100 % of control | dose: 200.0 mg/kg/injection, schedule: Q04DX003 (ip), vehicle: saline with Tween-80 111 % of control | dose: 400.0 mg/kg/injection, schedule: Q04DX003 (ip), vehicle: saline with Tween-80 92 % of control

C=C1C(=C)C2OC1c1cc3c(cc12)C(=O)C=CC3=O
inactive: [10] 100 % of control | [11] 91 % of control

O=C(Nc1nnc(-c2ccccc2)s1)c1cc(=O)c2cc(Cl)ccc2o1
inactive: dose: 50.0 mg/kg/injection, schedule: Q01DX005 (ip), vehicle: Klucel (hydroxypropylcellulose) (HPC) 114 % of control | dose: 100.0 mg/kg/injection, schedule: Q01DX005 (ip), vehicle: Klucel (hydroxypropylcellulose) (HPC) 98 % of control | dose: 200.0 mg/kg/injection, schedule: Q01DX005 (ip), vehicle: Klucel (hydroxypropylcellulose) (HPC) 106 % of control

CSc1n[nH]c(C2CCC(=O)N2Cc2ccccc2)n1 (configuration not stated)
inactive: [6] 103 % of control | [7] 101 % of control | dose: 200.0 mg/kg/injection, schedule: Q01DX005 (ip), vehicle: saline with Tween-80 100 % of control

CN1CCC(O)(O)C(Cl)(Cl)C1
inactive: dose: 50.0 mg/kg/injection, schedule: Q01DX005 (ip), vehicle: suspension in saline 104 % of control | dose: 100.0 mg/kg/injection, schedule: Q01DX005 (ip), vehicle: suspension in saline 99 % of control | dose: 200.0 mg/kg/injection, schedule: Q01DX005 (ip), vehicle: suspension in saline 95 % of control

CC(=O)OC1CC(C)(C2OC(=O)CC2CO)C2=CC(=O)OC3CC4C(C)(O)C=CC(=O)C4(C)C1C23C (configuration not stated)
inactive: dose: 12.5 mg/kg/injection, schedule: Q01DX001 (ip), vehicle: Klucel (hydroxypropylcellulose) (HPC) 100 % of control | dose: 25.0 mg/kg/injection, schedule: Q01DX001 (ip), vehicle: Klucel (hydroxypropylcellulose) (HPC) 100 % of control | dose: 50.0 mg/kg/injection, schedule: Q01DX001 (ip), vehicle: Klucel (hydroxypropylcellulose) (HPC) 102 % of control | dose: 100.0 mg/kg/injection, schedule: Q01DX001 (ip), vehicle: Klucel (hydroxypropylcellulose) (HPC) 105 % of control

CC(O)C(C)C(N)C(=O)O (configuration not stated)
inactive: dose: 8.25 mg/kg/injection, schedule: Q01DX005 (ip), vehicle: water 100 % of control | dose: 16.5 mg/kg/injection, schedule: Q01DX005 (ip), vehicle: water 98 % of control | dose: 33.0 mg/kg/injection, schedule: Q01DX005 (ip), vehicle: water 100 % of control | dose: 66.0 mg/kg/injection, schedule: Q01DX005 (ip), vehicle: water 99 % of control

CCOC(=O)C(=CNc1ccccc1)C(=O)OCC
inactive: dose: 25.0 mg/kg/injection, schedule: Q01DX009 (ip), vehicle: saline with Tween-80 103 % of control | [8] 100 % of control | [9] 103 % of control | [1] 100 % of control

O=C(COc1ccccc1)OC(=O)COc1ccccc1
inactive: [2] 109 % of control | [3] 100 % of control | [4] 93 % of control | [5] 98 % of control

C/C(=N\NC(=S)N1CCN(c2ccccn2)CC1)c1cccc(C)n1
inactive: dose: 6.25 mg/kg/injection, schedule: Q01DX005 (ip), vehicle: saline with Tween-80 101 % of control and 107 % of control | [10] 103 % of control and 124 % of control | [11] 118 % of control

Source: PubChem BioAssay AID330 (DTP/NCI, 2004)
